According to ChEMBL document CHEMBL3421553, “Design, synthesis, and biological evaluation of benzoselenazole-stilbene hybrids as multi-target-directed anti-cancer agents” (Eur J Med Chem, 2015):
Active and inactive are the calls of the source. No cut-off for these calls is given here.

Legend:
[1] = Cell cycle arrest in human Bel7402 cells assessed as cells accumulation at Sub-G1 phase at 50 uM after 48 hrs by flow cytometry (reference value: 1.47%); assay type: functional, cell-based; details: Bel-7402
[2] = Cell cycle arrest in human Bel7402 cells assessed as cells accumulation at S phase at 50 uM after 48 hrs by flow cytometry (reference value: 13.99%); assay type: functional, cell-based; details: Bel-7402
[3] = Inhibition of rat liver TrxR assessed as increase in absorbance by DTNB assay
Bel-7402 [4] = assay: Induction of apoptosis in human Bel7402 cells assessed as live cells at 50 uM after 48 hrs by flow cytometry (reference value: 98.65%); assay type: functional
[5] = Cell cycle arrest in human Bel7402 cells assessed as cells accumulation at G1 phase at 50 uM after 48 hrs by flow cytometry (reference value: 62.60%); assay type: functional, cell-based; details: Bel-7402
HeLa = assay: Antiproliferative activity against human HeLa cells assessed as cell viability after 48 hrs by MTT assay; assay type: functional, cell-based
Bel-7402 [6] = assay: Induction of apoptosis in human Bel7402 cells assessed as necrotic cells at 50 uM after 48 hrs by flow cytometry (reference value: 0.19%); assay type: functional
MCF7 = assay: Antiproliferative activity against human MCF7 cells assessed as cell viability after 48 hrs by MTT assay; assay type: functional, cell-based; details: MCF7, 48 h
[7] = Antiproliferative activity against human Bel7402 cells assessed as cell viability after 48 hrs by MTT assay; assay type: functional, cell-based; details: Bel-7402, 48 h
[8] = Cell cycle arrest in human Bel7402 cells assessed as cells accumulation at G2/M phase at 50 uM after 48 hrs by flow cytometry (reference value: 16.61%); assay type: functional, cell-based; details: Bel-7402
A549 = assay: Antiproliferative activity against human A549 cells assessed as cell viability after 48 hrs by MTT assay; assay type: functional, cell-based; details: A549, 48 h
Bel-7402 [9] = assay: Induction of apoptosis in human Bel7402 cells assessed as detection error cells at 50 uM after 48 hrs by flow cytometry (reference value: 0.43%); assay type: functional
Bel-7402 [10] = assay: Induction of apoptosis in human Bel7402 cells assessed as apoptotic cells at 50 uM after 48 hrs by flow cytometry (reference value: 0.73%); assay type: functional
Bel-7402 [11] = assay: Induction of apoptosis in human Bel7402 cells assessed as live cells at 0.5 uM after 48 hrs by flow cytometry (reference value: 98.65%); assay type: functional
Bel-7402 [12] = assay: Induction of apoptosis in human Bel7402 cells assessed as apoptotic cells at 1 uM after 48 hrs by flow cytometry (reference value: 0.73%); assay type: functional
[13] = Cell cycle arrest in human Bel7402 cells assessed as cells accumulation at G2/M phase at 0.5 uM after 48 hrs by flow cytometry (reference value: 16.61%); assay type: functional, cell-based; details: Bel-7402
[14] = Cell cycle arrest in human Bel7402 cells assessed as cells accumulation at G1 phase at 1 uM after 48 hrs by flow cytometry (reference value: 62.60%); assay type: functional, cell-based; details: Bel-7402
[15] = Cell cycle arrest in human Bel7402 cells assessed as cells accumulation at Sub-G1 phase at 3 uM after 48 hrs by flow cytometry (reference value: 1.47%); assay type: functional, cell-based; details: Bel-7402
Bel-7402 [16] = assay: Induction of apoptosis in human Bel7402 cells assessed as necrotic cells at 0.5 uM after 48 hrs by flow cytometry (reference value: 0.19%); assay type: functional
Bel-7402 [17] = assay: Induction of apoptosis in human Bel7402 cells assessed as detection error cells at 3 uM after 48 hrs by flow cytometry (reference value: 0.43%); assay type: functional
[18] = Cell cycle arrest in human Bel7402 cells assessed as cells accumulation at G2/M phase at 3 uM after 48 hrs by flow cytometry (reference value: 16.61%); assay type: functional, cell-based; details: Bel-7402
[19] = Cell cycle arrest in human Bel7402 cells assessed as cells accumulation at S phase at 1 uM after 48 hrs by flow cytometry (reference value: 13.99%); assay type: functional, cell-based; details: Bel-7402
[20] = Cell cycle arrest in human Bel7402 cells assessed as cells accumulation at S phase at 3 uM after 48 hrs by flow cytometry (reference value: 13.99%); assay type: functional, cell-based; details: Bel-7402
[21] = Cell cycle arrest in human Bel7402 cells assessed as cells accumulation at G2/M phase at 5 uM after 48 hrs by flow cytometry (reference value: 16.61%); assay type: functional, cell-based; details: Bel-7402
Bel-7402 [22] = assay: Induction of apoptosis in human Bel7402 cells assessed as live cells at 5 uM after 48 hrs by flow cytometry (reference value: 98.65%); assay type: functional
[23] = Cell cycle arrest in human Bel7402 cells assessed as cells accumulation at Sub-G1 phase at 5 uM after 48 hrs by flow cytometry (reference value: 1.47%); assay type: functional, cell-based; details: Bel-7402
Bel-7402 [24] = assay: Induction of apoptosis in human Bel7402 cells assessed as detection error cells at 5 uM after 48 hrs by flow cytometry (reference value: 0.43%); assay type: functional
[25] = Cell cycle arrest in human Bel7402 cells assessed as cells accumulation at S phase at 0.5 uM after 48 hrs by flow cytometry (reference value: 13.99%); assay type: functional, cell-based; details: Bel-7402
Bel-7402 [26] = assay: Induction of apoptosis in human Bel7402 cells assessed as detection error cells at 0.5 uM after 48 hrs by flow cytometry (reference value: 0.43%); assay type: functional
Bel-7402 [27] = assay: Induction of apoptosis in human Bel7402 cells assessed as live cells at 1 uM after 48 hrs by flow cytometry (reference value: 98.65%); assay type: functional
[28] = Aqueous solubility of the compound in phosphate buffer at pH 7.4; assay type: physicochemical
Bel-7402 [29] = assay: Induction of apoptosis in human Bel7402 cells assessed as apoptotic cells at 0.5 uM after 48 hrs by flow cytometry (reference value: 0.73%); assay type: functional
Bel-7402 [30] = assay: Induction of apoptosis in human Bel7402 cells assessed as necrotic cells at 3 uM after 48 hrs by flow cytometry (reference value: 0.19%); assay type: functional
[31] = Cell cycle arrest in human Bel7402 cells assessed as cells accumulation at G2/M phase at 1 uM after 48 hrs by flow cytometry (reference value: 16.61%); assay type: functional, cell-based; details: Bel-7402
[32] = Cell cycle arrest in human Bel7402 cells assessed as cells accumulation at Sub-G1 phase at 0.5 uM after 48 hrs by flow cytometry (reference value: 1.47%); assay type: functional, cell-based; details: Bel-7402
Bel-7402 [33] = assay: Induction of apoptosis in human Bel7402 cells assessed as detection error cells at 1 uM after 48 hrs by flow cytometry (reference value: 0.43%); assay type: functional
[34] = Cell cycle arrest in human Bel7402 cells assessed as cells accumulation at G1 phase at 5 uM after 48 hrs by flow cytometry (reference value: 62.60%); assay type: functional, cell-based; details: Bel-7402
Bel-7402 [35] = assay: Induction of apoptosis in human Bel7402 cells assessed as apoptotic cells at 3 uM after 48 hrs by flow cytometry (reference value: 0.73%); assay type: functional
[36] = Cell cycle arrest in human Bel7402 cells assessed as cells accumulation at G1 phase at 3 uM after 48 hrs by flow cytometry (reference value: 62.60%); assay type: functional, cell-based; details: Bel-7402
[37] = Cell cycle arrest in human Bel7402 cells assessed as cells accumulation at S phase at 5 uM after 48 hrs by flow cytometry (reference value: 13.99%); assay type: functional, cell-based; details: Bel-7402
[38] = Cell cycle arrest in human Bel7402 cells assessed as cells accumulation at Sub-G1 phase at 1 uM after 48 hrs by flow cytometry (reference value: 1.47%); assay type: functional, cell-based; details: Bel-7402
Bel-7402 [39] = assay: Induction of apoptosis in human Bel7402 cells assessed as apoptotic cells at 5 uM after 48 hrs by flow cytometry (reference value: 0.73%); assay type: functional
[40] = Cell cycle arrest in human Bel7402 cells assessed as cells accumulation at G1 phase at 0.5 uM after 48 hrs by flow cytometry (reference value: 62.60%); assay type: functional, cell-based; details: Bel-7402
Bel-7402 [41] = assay: Induction of apoptosis in human Bel7402 cells assessed as necrotic cells at 5 uM after 48 hrs by flow cytometry (reference value: 0.19%); assay type: functional
Bel-7402 [42] = assay: Induction of apoptosis in human Bel7402 cells assessed as live cells at 3 uM after 48 hrs by flow cytometry (reference value: 98.65%); assay type: functional
Bel-7402 [43] = assay: Induction of apoptosis in human Bel7402 cells assessed as necrotic cells at 1 uM after 48 hrs by flow cytometry (reference value: 0.19%); assay type: functional
Rattus norvegicus [44] = species on record: Rattus norvegicus; assay: Inhibition of rat liver TrxR assessed as increase in absorbance at 10 uM by DTNB assay
Rattus norvegicus [45] = species on record: Rattus norvegicus; assay: Inhibition of rat liver TrxR assessed as increase in absorbance at 50 uM by DTNB assay

Structure (SMILES): O=c1c2ccccc2[se]n1-c1ccccc1 [EBSELEN]
- Activity [1]: 3.32%
- Activity [2]: 11.2%
- IC50 [3]: 8.54 µM
- Activity (Bel-7402 [4]): 90.8%
- Activity [5]: 58.7%
- IC50 (HeLa): 78.5 µM
- Activity (Bel-7402 [6]): 0.72%
- IC50 (MCF7): > 100 µM
- IC50 [7]: 68.2 µM
- Activity [8]: 21.2%
- IC50 (A549): > 100 µM
- Activity (Bel-7402 [9]): 0.56%
- Activity (Bel-7402 [10]): 7.94%

Structure (SMILES): COc1ccc(/C=C/c2ccc(-n3[se]c4ccccc4c3=O)cc2)cc1OC
- Activity (Bel-7402 [11]): 89.75%
- Activity (Bel-7402 [12]): 13.55%
- Activity [13]: 22.2%
- Activity [14]: 49%
- Activity [15]: 5.47%
- Activity (Bel-7402 [16]): 1.29%
- Activity (Bel-7402 [17]): 2.39%
- Activity [18]: 42%
- Activity [19]: 6.93%
- IC50 [3]: 3.1 µM
- Activity [20]: 9.57%
- Activity [21]: 44.2%
- Activity (Bel-7402 [22]): 38.16%
- IC50 (HeLa): 1.52 µM
- Activity [23]: 6.69%
- Activity (Bel-7402 [24]): 2.95%
- Activity [25]: 14%
- Activity (Bel-7402 [26]): 2.22%
- IC50 (MCF7): 3.37 µM
- Activity (Bel-7402 [27]): 79.95%
- solubility [28]: > 100 µM
- IC50 [7]: 1.01 µM
- Activity (Bel-7402 [29]): 6.73%
- Activity (Bel-7402 [30]): 5.49%
- Activity [31]: 33.8%
- Activity [32]: 0.2%
- Activity (Bel-7402 [33]): 3.45%
- IC50 (A549): 1.53 µM
- Activity [34]: 37%
- Activity (Bel-7402 [35]): 36.71%
- Activity [36]: 40.4%
- Activity [37]: 8.32%
- Activity [38]: 5.15%
- Activity (Bel-7402 [39]): 53.63%
- Activity [40]: 55.8%
- Activity (Bel-7402 [41]): 5.26%
- Activity (Bel-7402 [42]): 55.41%
- Activity (Bel-7402 [43]): 3.04%

Structure (SMILES): COc1cc(/C=C\c2ccc(-n3[se]c4ccccc4c3=O)cc2)cc(OC)c1
- IC50 [3]: 9.62 µM
- IC50 (HeLa): 28.4 µM
- IC50 (MCF7): 56.3 µM
- IC50 [7]: 36.1 µM
- IC50 (A549): 43 µM

Structure (SMILES): COc1ccc(/C=C/c2ccc(N3Cc4ccccc4C3=O)cc2)cc1OC
- IC50 (HeLa): > 10 µM
- inhibition (Rattus norvegicus [44]): inactive
- IC50 (MCF7): > 10 µM
- solubility [28]: < 10 µM
- IC50 [7]: > 10 µM
- IC50 (A549): > 10 µM

Structure (SMILES): COc1cccc(/C=C/c2ccc(-n3[se]c4ccccc4c3=O)cc2)c1
- IC50 [3]: 12.8 µM
- IC50 (HeLa): 7.34 µM
- IC50 (MCF7): 9.62 µM
- IC50 [7]: 13.2 µM
- IC50 (A549): 10.4 µM

Structure (SMILES): COc1cc(/C=C/c2ccc(-n3[se]c4cc(F)ccc4c3=O)cc2)cc(OC)c1
- IC50 (HeLa): 0.64 µM
- inhibition (Rattus norvegicus [44]): 36.6%
- IC50 (MCF7): 0.51 µM
- solubility [28]: < 10 µM
- IC50 [7]: 0.99 µM
- IC50 (A549): 1.22 µM

Structure (SMILES): Oc1ccc(/C=C/c2cc(O)cc(O)c2)cc1 [RESVERATROL]
- Activity [1]: 0.15%
- Activity [2]: 9.83%
- Activity (Bel-7402 [4]): 85.3%
- Activity [5]: 59%
- IC50 (HeLa): 47.9 µM
- inhibition (Rattus norvegicus [45]): 26.1%
- Activity (Bel-7402 [6]): 0.01%
- IC50 (MCF7): > 100 µM
- IC50 [7]: 50.7 µM
- Activity [8]: 31.2%
- IC50 (A549): > 100 µM
- Activity (Bel-7402 [9]): 0.03%
- Activity (Bel-7402 [10]): 13.2%
